This passage reports EC50 and IC50 results from patent publication US20120225896A1, “NOVEL 2-PYRIDONE DERIVATIVE AND PHARMACEUTICAL PRODUCT CONTAINING SAME” (KOWA COMPANY, LTD., priority 2009, published 2012).

Assay [1] has as its target T1, human PPARγ2 (Homo sapiens, UniProt P37231).
T1 construct: the amino acids 182 to 505 of human PPARγ2; expressed in transfected cells; African green monkey kidney
In words: PPARγ activation activity, Gal4-PPARγ2 LBD chimera luciferase transfection assay in COST cells. The assay is classed as cell-based. Here is the method: PPARγ Activation Activity
The agonistic activity of the compounds of the invention on PPARγ was measured based on the transfection assay using COST cells (DS Pharma Biomedical Co., Ltd., Osaka, Japan), which are the cell line derived from the kidney of the African green monkey. COST cells were cultured under 5% CO2 concentration, and DMEM medium containing 10% fetal bovine serum, glutamic acid, and antibiotics was used as a medium.
As an expression vector, a chimera in which DNA binding domain of Ga14, which is a yeast transcription factor, and ligand binding domain of human PPARγ2 are fused, i.e., a fused product between the amino acids 1 to 147 of Gal4 transcription factor and the amino acids 182 to 505 of human PPARγ2, was used. Furthermore, as a reporter vector, a firefly luciferase containing five copies of Gal4 recognition sequence in the promoter region was used. Plasmid transfection to the cells was performed according to a method which uses jetPEI (trade name, manufactured by Funakoshi Co., Ltd., Tokyo, Japan). Furthermore, β-galactosidase expression vector was employed as an internal standard.
After the transfection of the cells, the medium was replaced with a DMEM medium (containing 1% serum) added with the test compound, and the cells were further cultured for 16 hours. After that, the luciferase activity and β-galactosidase activity in the cell lysis solution were measured.
For the present test, dimethyl sulfoxide (DMSO) was used for dissolution and dilution of the test compounds, and during the cell treatment, the DMSO concentration in DMEM medium (containing 1% serum) was adjusted to 0.1%. The 50% effective concentration of the test compound (EC50, 50% effect concentration) was calculated by using SAS Preclinical Package Ver 5.0 (trade name, manufactured by SAS institute Japan Co., Tokyo, Japan), which is a statistical analysis program.
As shown in the Table 2, it was confirmed that the compounds of the present invention have a potent PPARγ activation activity. Under the same condition, the PPARγ activation activity of telmisartan, i.e., EC50, was 1 to 5 μM.

In assay [2] the target is T2, angiotensin II type 1 receptor (Oryctolagus cuniculus, UniProt P34976).
T2 construct: By using a specimen of isolated rabbit blood vessels; from tissue; host or cells: rabbit thoracic aorta ring (New Zealand White, male)
T2 sequence (P34976 1-359): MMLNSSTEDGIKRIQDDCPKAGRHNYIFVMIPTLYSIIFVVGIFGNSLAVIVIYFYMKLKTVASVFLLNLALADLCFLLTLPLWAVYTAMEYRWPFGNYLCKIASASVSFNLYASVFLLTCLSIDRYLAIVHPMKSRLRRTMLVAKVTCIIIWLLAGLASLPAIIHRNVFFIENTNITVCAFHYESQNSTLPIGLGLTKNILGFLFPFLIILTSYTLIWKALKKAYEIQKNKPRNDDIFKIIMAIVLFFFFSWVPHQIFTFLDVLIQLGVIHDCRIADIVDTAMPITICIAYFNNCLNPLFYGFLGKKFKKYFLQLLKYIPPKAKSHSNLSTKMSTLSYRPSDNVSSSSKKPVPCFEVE
In words: Angiotensin II antagonistic activity in isolated rabbit blood vessels (angiotensin II-induced contraction of thoracic aorta ring). The note with it: angiotensin II (10 nM)-induced contraction, 37° C. The assay is classed as cell-based. From the text: Angiotensin II Antagonistic Activity in Isolated Rabbit Blood Vessels
By using a specimen of isolated rabbit blood vessels, antagonistic activity of the compounds of the invention against angiotensin II type 1 receptor was estimated from a dose-response curve of angiotensin II-induced blood vessel contraction. Specifically, the specimen of thoracic aorta ring of a rabbit (New Zealand White: male, 2.4 to 3.0 kg) was suspended in a magnus bath filled with Krebs-Henseleite buffer (composition: 118 mM NaCl, 4.7 mM KCl, 2.55 mM CaCl2, 1.18 mM MgSO4, 1.18 mM KH2PO4, 24.88 mM NaHCO3, and 11.1 mM D-glucose), and angiotensin II (10 nM)-induced contraction was obtained in the presence of the compounds of each example (1 nmol/L to 10 μmol/L). During the measurement, the inside temperature of the magnus bath was maintained at 37° C. and the bath was continuously ventilated with a sufficient amount of mixed gas (95% O2 and 5% CO2). The angiotensin II-induced contraction was converted into a relative value (%) that is based on the angiotensin II (10 nM)-induced contraction in the absence of the compounds of each example. From the concentration-response curve obtained therefrom, 50% inhibition concentration (IC50 value) was calculated by using SAS Preclinical Package Ver5.0 (trade name, manufactured by SAS institute Japan Co., Tokyo, Japan), which is a statistical analysis program.
As shown in the Table 1, it was confirmed that the compounds of the invention have a potent angiotensin II antagonistic activity.

[3] abbreviates: COST cells transfected with Gal4 (aa 1-147)/human PPARγ2 (aa 182-505) chimera, luciferase reporter, 16 hours, read-out: EC50.

Where two headings read alike, the source gives them in different places.

T1 sequence (P37231 182-505): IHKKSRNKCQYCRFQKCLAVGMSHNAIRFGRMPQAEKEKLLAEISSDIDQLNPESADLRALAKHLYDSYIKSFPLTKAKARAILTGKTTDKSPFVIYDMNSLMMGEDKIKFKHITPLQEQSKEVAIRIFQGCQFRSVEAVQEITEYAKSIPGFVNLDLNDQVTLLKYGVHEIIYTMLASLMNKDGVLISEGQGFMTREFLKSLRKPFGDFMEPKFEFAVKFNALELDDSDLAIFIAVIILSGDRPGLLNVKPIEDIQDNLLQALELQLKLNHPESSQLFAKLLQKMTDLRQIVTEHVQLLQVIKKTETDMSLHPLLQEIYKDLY
T1 sequence (P04386 1-147 partner limits assumed): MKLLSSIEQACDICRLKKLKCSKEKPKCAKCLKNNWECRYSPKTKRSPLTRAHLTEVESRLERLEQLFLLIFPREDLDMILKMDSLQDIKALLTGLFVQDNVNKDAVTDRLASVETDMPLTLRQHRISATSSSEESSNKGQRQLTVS

Take `CCCCCc1cc(C)n(Cc2ccccc2)c(=O)c1Cc1ccc(-c2ccccc2-c2noc(=O)[nH]2)cc1` [Example 6, 3-{4′-[(1-benzyl-6-methyl-2-oxo-4-pentyl-1,2-dihydropyridin-3-yl)methyl]biphenyl-2-yl}-1,2,4-oxadiazol-5(4H)-one]: the EC50 in assay [1] (setting [3]) came to 260 nM. On the same count and under the same terms, the result for `CCCc1cc(C)n(Cc2ccccc2)c(=O)c1Cc1ccc(-c2ccccc2-c2noc(=O)[nH]2)cc1` [Example 4, 3-{4′-[(1-benzyl-6-methyl-2-oxo-4-propyl-1,2-dihydropyridin-3-yl)methyl]biphenyl-2-yl}-1,2,4-oxadiazol-5(4H)-one] reads 200 nM. Take `CCCCc1cc(C)n(CCOC)c(=O)c1Cc1ccc(-c2ccccc2-c2noc(=O)[nH]2)cc1` [Example 10, 3-{4′-{[4-butyl-1-(2-methoxyethyl)-6-methyl-2-oxo-1,2-dihydropyridin-3-yl)methyl]biphenyl-2-yl}-1,2,4-oxadiazol-5(4H)-one]: the midpoint of inhibition in assay [2], the IC50, lay at 190 nM. In addition, in assay [1] (setting [3]), the EC50 is 450 nM. On to `CCCOc1cc(C)n(Cc2ccccc2)c(=O)c1Cc1ccc(-c2ccccc2-c2nnn[nH]2)cc1` [Example 17, 3-{[2′-(1H-tetrazol-5-yl)biphenyl-4-yl]methyl}-1-benzyl-6-m ethyl-4-propoxypyridin-2(1H)-one], for which the half-maximal effective concentration (EC50) in assay [1] (setting [3]) was 580 nM. Consider `CCCCc1cc(C)n(CCc2ccccc2)c(=O)c1Cc1ccc(-c2ccccc2-c2noc(=O)[nH]2)cc1` [Example 8, 3-{4′-[(4-butyl-6-methyl-2-oxo-1-phenethyl-1,2-dihydropyridin-3-yl)methyl]biphenyl-2-yl}-1,2,4-oxadiazol-5(4H)-one], for which, in assay [2], the concentration for half-maximal inhibition (IC50) stood at 390 nM. The concentration giving a half-maximal response (EC50) in assay [1] (setting [3]) came to 200 nM.

`CCCCc1cc(C)n(CCc2ccccc2)c(=O)c1Cc1ccc(-c2ccccc2-c2nnn[nH]2)cc1` [Example 7, 3-{[2′-(1H-tetrazol-5-yl)biphenyl-4-yl]methyl}-4-butyl-6-methyl-1-phenethylpyridin-2(1H)-one] registered a concentration for half-maximal inhibition (IC50) in assay [2] of 580 nM. The EC50 in assay [1] (setting [3]) came out at 270 nM. Consider `CCCCc1cc(C)n(-c2ccccn2)c(=O)c1Cc1ccc(-c2ccccc2-c2noc(=O)[nH]2)cc1` [Example 16, 3-{4′-{[4-butyl-6-methyl-2-oxo-1-(pyridin-2-yl)-1,2-dihydropyridin-3-yl]methyl}biphenyl-2-yl}-1,2,4-oxadiazol-5(4H)-one], for which, in assay [1] (setting [3]), the EC50 is 1400 nM. As for `CCCOc1cc(C)n(Cc2ccccc2)c(=O)c1Cc1ccc(-c2ccccc2-c2noc(=O)[nH]2)cc1` [Example 18, 3-{4′-[(1-benzyl-6-methyl-2-oxo-4-propoxy-1,2-dihydropyridin-3-yl)methyl]biphenyl-2-yl}-1,2,4-oxadiazol-5(4H)-one], the EC50 in assay [1] (setting [3]) stood at 140 nM.

`CCCCc1cc(C)n(-c2ncc(OCC)cn2)c(=O)c1Cc1ccc(-c2ccccc2-c2noc(=O)[nH]2)cc1` [Example 12, 3-{4′-{[4-butyl-1-(5-ethoxypyrimidin-2-yl)-6-methyl-2-oxo-1,2-dihydropyridin-3-yl]methyl}biphenyl-2-yl}-1,2,4-oxadiazol-5(4H)-one] gave a half-inhibitory concentration (IC50) in assay [2] of 460 nM. Besides, in assay [1] (setting [3]), the EC50 was 590 nM.

For `CCCCc1cc(C)n(Cc2ccccc2)c(=O)c1Cc1ccc(-c2ccccc2-c2nnn[nH]2)cc1` [Example 1, 3-{[2′-(1H-tetrazol-5-yl)biphenyl-4-yl]methyl}-1-benzyl-4-butyl-6-methylpyridin-2(1H)-one], in assay [1] (setting [3]), the EC50 turned out to be 400 nM. `CCCCc1cc(C)n(CCOC)c(=O)c1Cc1ccc(-c2ccccc2-c2nnn[nH]2)cc1` [Example 9, 3-{[2′-(1H-tetrazol-5-yl)biphenyl-4-yl]methyl}-4-butyl-1-(2-methoxyethyl)-6-methylpyridin-2(1H)-one] displayed an IC50 in assay [2] of 160 nM. For the same compound, the EC50 in assay [1] (setting [3]) is 560 nM.

With `CCCc1cc(C)n(Cc2ccccc2)c(=O)c1Cc1ccc(-c2ccccc2-c2nnn[nH]2)cc1` [Example 3, 3-{[2′-(1H-tetrazol-5-yl)biphenyl-4-yl]methyl}-1-benzyl-6-m ethyl-4-propylpyridin-2(1H)-one], in assay [1] (setting [3]), the EC50 came out at 320 nM.

For the compound `CCCCCc1cc(C)n(Cc2ccccc2)c(=O)c1Cc1ccc(-c2ccccc2-c2nnn[nH]2)cc1` [Example 5, 3-{[2′-(1H-tetrazol-5-yl)biphenyl-4-yl]methyl}-1-benzyl-6-m ethyl-4-pentylpyridin-2(1H)-one], the EC50 in assay [1] (setting [3]) stood at 500 nM. On to `CCCCc1cc(C)n(Cc2ccccc2)c(=O)c1Cc1ccc(-c2ccccc2-c2noc(=O)[nH]2)cc1` [Example 2, 3-{4′-[(1-benzyl-4-butyl-6-methyl-2-oxo-1,2-dihydropyridin-3-yl)methyl]biphenyl-2-yl}-1,2,4-oxadiazol-5(4H)-one], for which the EC50 in assay [1] (setting [3]) is 260 nM. As to `CCCCc1cc(C)n(-c2ncc(OC)cn2)c(=O)c1Cc1ccc(-c2ccccc2-c2noc(=O)[nH]2)cc1` [Example 14, 3-{4′-{[4-butyl-1-(5-methoxypyrimidin-2-yl)-6-methyl-2-oxo-1,2-dihydropyridin-3-yl]methyl}biphenyl-2-yl}-1,2,4-oxadiazol-5(4H)-one], the IC50 in assay [2] was 540 nM. The 50% effective concentration (EC50) in assay [1] (setting [3]) came to 1270 nM. Regarding `CCCc1nc2c(C)cc(-c3nc4ccccc4n3C)cc2n1Cc1ccc(-c2ccccc2C(=O)O)cc1` [telmisartan, reference compound], in assay [1], the concentration giving a half-maximal response (EC50) fell in the range of 1000 to 5000 nM. Regarding `CCCCc1cc(C)n(-c2ncc(OCC)cn2)c(=O)c1Cc1ccc(-c2ccccc2-c2nnn[nH]2)cc1` [Example 11, 3-{[2′-(1H-tetrazol-5-yl)biphenyl-4-yl]methyl}-4-butyl-1-(5-ethoxypyrimidin-2-yl)-6-methylpyridin-2(1H)-one], the IC50 in assay [2] worked out at 330 nM. In assay [1] (setting [3]), the half-maximal effective concentration (EC50) came to 2220 nM.

For `CCCCc1cc(C)n(-c2ccccn2)c(=O)c1Cc1ccc(-c2ccccc2-c2nnn[nH]2)cc1` [Example 15, 3-{[2′-(1H-tetrazol-5-yl)biphenyl-4-yl]methyl}-4-butyl-6-methyl-1-(pyridin-2-yl)pyridin-2(1H)-one], the midpoint of inhibition in assay [2], the IC50, lay at 460 nM. The EC50 in assay [1] (setting [3]) worked out at 1660 nM.
